Experimental findings from PubChem BioAssay (NCI) are described below.

Among the test systems are HCT-116 colon; SNB-75 CNS; SN12C renal; HCT-15 colon; M14 melanoma; OVCAR-5 ovarian; NCI-H460 lung; MALME-3M melanoma; OVCAR-8 ovarian; CCRF-CEM leukemia.
Holding throughout (assay): growth of human tumour cells (NCI), 48 h

Each structure is given as a SMILES string.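 How tested: cells in 96-well plates exposed to compound for 48 hours at five concentrations. At the GI50, growth is halved. Definition used: TGI = concentration required for complete inhibition of growth.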

For the compound `C/C(CC(=O)Nc1ccc(NC(=O)/C(C)=N/NS(=O)(=O)c2ccc(C)cc2)cc1)=N\NS(=O)(=O)c1ccc(C)cc1`, the TGI in the test with HCT-116 colon, with SNB-75 CNS, with SN12C renal, in the test with HCT-15 colon, in the test with M14 melanoma and with OVCAR-5 ovarian was over 100 µM in each case. In addition, the TGI with NCI-H460 lung, with MALME-3M melanoma and in the test on OVCAR-8 ovarian was over 100 µM throughout.
For the compound `ClC1=C(Cl)C(Cl)=C(Cl)C1=Cc1ccc(Cl)cc1Cl`, the GI50 in the test on HCT-116 colon is 0.206 µM; with CCRF-CEM leukemia, 0.352 µM; in the test with SNB-75 CNS, 1.9 µM; in the test on SN12C renal, 0.254 µM; in the test with HCT-15 colon, 0.3 µM; in the test with M14 melanoma, 0.234 µM. Moreover, the GI50 in the test on OVCAR-5 ovarian is 1.33 µM. Also, the TGI was found to be 0.494 µM in the test with HCT-116 colon; 3.98 µM with CCRF-CEM leukemia; 5.51 µM in the test on SNB-75 CNS; 0.743 µM in the test on SN12C renal; 1.3 µM in the test on HCT-15 colon; 0.635 µM with M14 melanoma. Further, the TGI with OVCAR-5 ovarian was 4.01 µM.
Take `CN(/C(=N\O)c1ccccc1)c1ccccc1`: the TGI is over 100 µM in the test with HCT-116 colon; 40.8 µM in the test with SNB-75 CNS; over 100 µM in the test on SN12C renal; 57.5 µM with M14 melanoma; over 100 µM with OVCAR-5 ovarian; over 100 µM in the test with NCI-H460 lung. The TGI was 84.1 µM with MALME-3M melanoma and 64.9 µM in the test on OVCAR-8 ovarian.
Turning to `COc1ccc2c(c1)Cc1c-2[nH]c2cc3c(cc2c1=O)OCO3`, the TGI in the test on HCT-116 colon is 23.2 µM; in the test on CCRF-CEM leukemia, 39.1 µM; with SN12C renal it was over 100 µM; in the test on HCT-15 colon, over 100 µM; in the test on M14 melanoma it was 51.2 µM; in the test on NCI-H460 lung, 35 µM. Moreover, the values for the TGI in the test on MALME-3M melanoma and in the test with OVCAR-8 ovarian were 42.8 µM and over 100 µM, respectively.
With `CCC(C)c1cnc(CC(C)C)c(=O)[nH]1` (stereo unspecified), the TGI in the test on HCT-116 colon, in the test with CCRF-CEM leukemia, in the test on SNB-75 CNS, in the test on SN12C renal, in the test on HCT-15 colon and in the test on M14 melanoma was over 100 µM throughout. In addition, the TGI in the test on OVCAR-5 ovarian, in the test with NCI-H460 lung and in the test with OVCAR-8 ovarian was over 100 µM each time.
Turning to `CC(C)[C@H](O)C(=O)N[C@H]1Cc2ccc3c(c2)[C@]24C5=C(N=C(O5)[C@H](C(C)C)NC1=O)c1nc(Cl)c(o1)-c1c(Cl)[nH]c5cccc(c15)-c1cccc2c1N[C@H]4O3`, the GI50 is under 0.001 µM in the test on HCT-116 colon, 0.0012 µM in the test on M14 melanoma, 4.26 µM in the test on OVCAR-5 ovarian and under 0.001 µM in the test with NCI-H460 lung. The TGI was 0.0277 µM with CCRF-CEM leukemia; over 10 µM in the test with HCT-15 colon; over 10 µM in the test with M14 melanoma; over 10 µM in the test with OVCAR-5 ovarian; 1.21 µM in the test on NCI-H460 lung; 0.0526 µM with MALME-3M melanoma.
With `N#CNc1nc(C(=O)Nc2ccc(Cl)cc2)cc(-c2ccccc2)n1`, the TGI in the test with HCT-116 colon, in the test on SNB-75 CNS, in the test with SN12C renal, with HCT-15 colon, in the test on M14 melanoma and in the test with OVCAR-5 ovarian was over 100 µM each time. For the same compound, the TGI in the test on MALME-3M melanoma and in the test with OVCAR-8 ovarian was over 100 µM in each case.
With `Cc1cccc(NC(=O)Cc2nc3ccccc3s2)c1C`, the TGI in the test with CCRF-CEM leukemia, in the test with SNB-75 CNS, with SN12C renal, in the test on HCT-15 colon, in the test with M14 melanoma and in the test with OVCAR-5 ovarian was over 100 µM in each case. Also, the TGI in the test with NCI-H460 lung, with MALME-3M melanoma and with OVCAR-8 ovarian was over 100 µM in each case.
For the compound `CN(C)CCC(=O)NCc1c2nc3ccccc3nc2n2ccccc12`, the GI50 in the test with HCT-116 colon was 21 µM; with CCRF-CEM leukemia it was 25.7 µM; with SN12C renal, 68 µM; in the test on HCT-15 colon, 48.4 µM; with M14 melanoma it was 26.3 µM; in the test on OVCAR-5 ovarian, over 100 µM. Further, the GI50 in the test with NCI-H460 lung is 42.5 µM; in the test on OVCAR-8 ovarian, 84.8 µM. In addition, the TGI with HCT-116 colon is 59.7 µM; in the test with CCRF-CEM leukemia it was 78.8 µM; with SN12C renal, over 100 µM; with HCT-15 colon it was over 100 µM; in the test with M14 melanoma it was 69.5 µM; in the test on OVCAR-5 ovarian it was over 100 µM. In addition, the TGI with NCI-H460 lung and in the test with OVCAR-8 ovarian was over 100 µM throughout.
In the case of `Nc1n[n+]([O-])c2cnccc2[n+]1[O-]`, the TGI with HCT-116 colon, with CCRF-CEM leukemia, in the test with SNB-75 CNS, in the test on SN12C renal, in the test with HCT-15 colon and in the test on M14 melanoma was over 100 µM in each case. The TGI in the test with OVCAR-5 ovarian, in the test with NCI-H460 lung and with OVCAR-8 ovarian was over 100 µM in each case.
`CCOC(CN(C)C(=O)OCC(Cl)(Cl)Cl)OCC`: the TGI with HCT-116 colon, in the test on CCRF-CEM leukemia, in the test with SNB-75 CNS, with SN12C renal, in the test on HCT-15 colon and in the test on M14 melanoma was over 100 µM in each case. Moreover, the TGI in the test on OVCAR-5 ovarian, with NCI-H460 lung and in the test with OVCAR-8 ovarian was over 100 µM in each case.
Turning to `N=C(N)Cn1cnc2ccccc21`, the TGI in the test on CCRF-CEM leukemia, in the test with SNB-75 CNS, in the test on SN12C renal, in the test on HCT-15 colon, in the test with M14 melanoma and in the test with OVCAR-5 ovarian was over 100 µM each time. The TGI in the test on NCI-H460 lung, in the test with MALME-3M melanoma and with OVCAR-8 ovarian was over 100 µM each time.
With `C=CC1=C(C)C(Cc2[nH]c(/C=c3\[nH]/c(=C/C4=NC(=O)C(C)/C4=C\C)c(C)c3CCC(=O)O)c(CCC(=O)OC)c2C)NC1=O` (stereo unspecified), the GI50 with HCT-116 colon is 19.8 µM; with CCRF-CEM leukemia, 31.2 µM; in the test on SN12C renal, 22.2 µM; in the test on HCT-15 colon, 21.6 µM; in the test with M14 melanoma, 28.3 µM; with OVCAR-5 ovarian, 37.6 µM. Further, the GI50 was 21.7 µM in the test with NCI-H460 lung, 31.8 µM in the test on MALME-3M melanoma and 34.9 µM in the test with OVCAR-8 ovarian. In addition, the TGI with HCT-116 colon was 36.9 µM; in the test with CCRF-CEM leukemia it was over 100 µM; with SN12C renal, 44.6 µM; in the test with HCT-15 colon it was 53.9 µM; with M14 melanoma, 89.5 µM; in the test with OVCAR-5 ovarian it was over 100 µM. In addition, the TGI in the test on NCI-H460 lung was over 100 µM; with MALME-3M melanoma, 69.8 µM; in the test on OVCAR-8 ovarian, over 100 µM.
